# Source: patent publication US12351587B2, “Bicyclic compound as RIP-1 kinase inhibitor and application thereof” (MEDSHINE DISCOVERY INC., priority 2019, dated 2025)
# Tests used:
# [1] = tested on: U937 cells; test: U937 cell activity assay: TNFα/QVD-OPh-induced programmed cell necrosis (necroptosis); format: cell-based, human; details: QVD-OPh 25 μM + TNF-α 100 ng/mL, CellTiter Glo
# Procedure: 1.2 Instrument and Materials
# Envision plate reader (Perkin Elmer, Cat #2104-0010)
# 1.3 Formulation of Reagents • (1) 1×DPSB: To 100 mL of 10×DPBS was added 900 mL of deionized water. • (2) 1640 complete medium: To 89 mL of RPMI-1640 medium were added 10 mL of FBS and 1 mL of penicillin/streptomycin 2. Assay Steps • 1. U937 cells were centrifuged, and then the medium was discarded. The cells were resuspended in 1640 complete medium and counted. The cell concentration was adjusted to 5×10^5 cells/mL for use, and the cells were arranged according to compounds to be assayed. • 2. To the prepared resuspension of U937 cells were added QVD-OPh at a final concentration of 25 μM and TNF-α at a final concentration of 100 ng/mL, and then the mixture was mixed gently. • 3. To a 384-well plate was added 30 μL/well of U937 cells containing 25 μM of QVD-OPh and TNF-α at a final concentration of 100 ng/mL, and blank control wells without QVD-OPh and TNF-α were set up. • 4. To the dosing group […] added 10 μL of the assay compound at 4 times the preset concentration, and to the blank control well was added DMSO at the corresponding concentration. • 5. The 384-well plate was placed in a 37° C. and 5% CO2 cell incubator for 24 hours. • 6. After 24 hours, the 384-well plate was taken out and equilibrated at room temperature for 20 minutes. • 7. 40 μL of CTG was added to each well, and then the plate was shaken on a shaker in the dark for 2 minutes. • 8. The plate was incubated at room temperature in the dark for 10 minutes, and then read using an Envision plate reader.
# [2] = tested on: L929 cells; test: In vitro activity assay of mouse RIP1: L929 cell TNFα/QVD-OPh-induced necroptosis; format: cell-based; details: TNF-α 50 ng/mL + Q-VD 50 μM, 24 h, CellTiter Glo
# Procedure: Assay Example 2: In Vitro Activity Assay of Mouse RIP1
# L929 (purchased from ATCC, Item No.: CCL-1)
# Instrument Microplate reader (Perkin Elmer, Envision) Formulation of Reagents L929 cell complete medium: EMEM+10% horse serum (volume ratio)+1% double antibiotics (volume ratio) Assay Step • 1. The cultured L929 cells were digested with trypsin, centrifuged, resuspended in complete culture medium, and then counted. The cell concentration was then diluted to 1×10^5/mL with complete culture medium. • 2. The cell suspension was added to a 96-well plate at 100 μL per well and incubated at 37° C. and 5% CO2 for 24 h. • 3. Different concentrations of assay compounds were added to each well, and dimethyl sulfoxide was added to the control group. The plate was incubated at 37° C. and 5% CO2 for 1 h. • 4. To each well were added TNF-α at a final concentration of 50 ng/mL and Q-VD at a final concentration of 50 μM, and the plate was incubated at 37° C. and 5% CO2 for 24 h. • 5. To each well was added 50 μL of CellTiter Glo […], and the plate was shaken in the dark for 10 min. • 6. The plate was read on the microplate reader.
# [3] = Pharmacokinetic parameters in dogs; format: in vivo; details: beagle, plasma, dog
# Procedure: Four healthy adult beagle dogs were selected and randomly divided into two groups. One group was given the assay compound by intravenous injection, and the other group was given the assay compound by gavage. Plasma samples were collected respectively from animals in the intravenous group and gavage group at 0.083, 0.25, 0.5, 1.0, 2.0, 4.0, 6.0, 8.0, 24 hours after administration. The blood concentration was determined by LC-MS/MS method. Relevant pharmacokinetic parameters were calculated by WinNonlin™ Version 6.3 (Pharsight. Mountain View, CA) pharmacokinetic software using non-compartmental model and linear logarithmic trapezoidal method. AUC0-last represents the area under the plasma concentration-time curve from zero time point to the last detectable concentration time point; Cmax represents the peak concentration; Tmax represents the time to reach the peak; T1/2 represents the half-life; CL represents the clearance rate; Vdss represents apparent volume of distribution; p.o. represents per os; i.v. represents intravenous injection; and F % represents oral bioavailability.
SMILES,"IC50 ([1]; Homo sapiens, U-937, 24 h)",IC50 [2],other results
Cc1ccc(Cn2cnc(C(=O)N[C@H]3COc4cccnc4N(C)C3=S)n2)cc1 [WX039],3.4 nM,0.064 µM,
CN1C(=S)[C@@H](NC(=O)c2nc(Cc3ccccc3)n[nH]2)COc2ccccc21 [WX001],0.5 nM,1.16 µM,
COc1ccccc1Cn1cnc(C(=O)N[C@H]2COc3cccnc3N(C)C2=S)n1 [WX027],20 nM,,
CN1C(=S)[C@@H](NC(=O)c2ncn(Cc3ccccc3)n2)COc2cc(Br)cnc21 [WX023],29 nM,,
CN1C(=S)[C@@H](NC(=O)c2cc(Cc3ccccc3)on2)COc2cccnc21 [WX007],70 nM,,
[2H]C([2H])([2H])N1C(=S)[C@@H](NC(=O)c2n[nH]c(Cc3ccccc3)n2)COc2cccnc21 [WX005],2 nM,1.31 µM,
Cc1ccccc1Cn1cnc(C(=O)N[C@H]2COc3cccnc3N(C)C2=S)n1 [WX035],4.9 nM,,
CN1C(=S)[C@@H](NC(=O)c2ncn(Cc3ccc(F)cc3)n2)COc2cccnc21 [WX031],2.4 nM,0.174 µM,
CN1C(=S)[C@@H](NC(=O)c2ncn(Cc3cccc(C#N)c3)n2)COc2cccnc21 [WX032],5.7 nM,0.255 µM,
CN1C(=S)[C@@H](NC(=O)c2ncn(Cc3ccc(C(F)(F)F)cc3)n2)COc2cccnc21 [WX041],86.5 nM,,
CN1C(=S)[C@@H](NC(=O)c2ncn(Cc3ccccc3F)n2)COc2cccnc21 [WX019],0.6 nM,0.051 µM,
COc1ccc(Cn2cnc(C(=O)N[C@H]3COc4cccnc4N(C)C3=S)n2)cc1 [WX030],15.6 nM,,
CN1C(=S)[C@@H](NC(=O)c2ncn(Cc3cccc(Br)c3)n2)COc2cccnc21 [WX037],24 nM,,
CN1C(=S)[C@@H](NC(=O)c2ncn(Cc3cccc(F)c3)n2)COc2cccnc21 [WX029],2.2 nM,0.184 µM,
CN1C(=S)[C@@H](NC(=O)c2ncn(CC34CC(F)(C3)C4)n2)COc2cccnc21 [WX017],59 nM,,
CN1C(=S)[C@@H](NC(=O)c2ncn(Cc3ccccc3)n2)COc2ccc(C(=O)O)cc21 [WX024],43 nM,,
CN1C(=S)[C@@H](NC(=O)c2nc(Cc3cccc(C#N)c3)n[nH]2)COc2ccccc21 [WX002],1.8 nM,,
COc1cccc(Cn2cnc(C(=O)N[C@H]3COc4cccnc4N(C)C3=S)n2)c1 [WX042],24.8 nM,,
CN1C(=S)[C@@H](NC(=O)c2cn(Cc3ccccc3)cn2)COc2cccnc21 [WX006],9 nM,,
"CN1C(=S)[C@@H](NC(=O)c2nc3n(n2)CCO[C@H]3c2ccccc2)COc2cccnc21 (single isomer, unassigned) [WX028]",4.7 nM,0.065 µM,
CN1C(=S)[C@@H](NC(=O)c2nnc(Cc3ccccc3)o2)COc2cccnc21 [WX012],12.1 nM,,

SMILES,"IC50 ([1]; Homo sapiens, U-937, 24 h)",IC50 [2],other results
CN1C(=S)[C@@H](NC(=O)c2ncn(Cc3cc(F)cc(F)c3)n2)COc2cccnc21 [WX034],3.7 nM,,
CN1C(=S)[C@@H](NC(=O)c2cn(Cc3ccccc3)nn2)COc2cccnc21 [WX010],47 nM,,
CN1C(=S)[C@@H](NC(=O)c2ncn(Cc3c(F)cccc3F)n2)COc2cccnc21 [WX020],0.6 nM,0.029 µM,
CN1C(=S)[C@@H](NC(=O)c2ncn(Cc3ccc(OC(F)(F)F)cc3)n2)COc2cccnc21 [WX038],238 nM,,
CN1C(=S)[C@@H](NC(=O)c2nc(Cc3ccccc3)n[nH]2)COc2cccnc21 [WX003],0.5 nM,1.21 µM,
CN1C(=S)[C@@H](NC(=O)c2ncn(Cc3ccccc3)n2)COc2ccc(C(N)=O)cc21 [WX040],4.8 nM,,
CN1C(=S)[C@@H](NC(=O)c2nc(Cc3cccc(C#N)c3)n[nH]2)COc2cccnc21 [WX004],0.3 nM,,
CN1C(=S)[C@@H](NC(=O)c2ncn(Cc3ccccc3)n2)COc2ccncc21 [WX025],12 nM,,
O=C(N[C@H]1CCc2cc(F)cc(F)c2NC1=S)c1nc(Cc2ccccc2)n[nH]1 [WX014],3.7 nM,,
CN1C(=S)[C@@H](NC(=O)c2ncn(Cc3cccc(Cl)c3)n2)COc2cccnc21 [WX036],6.4 nM,,
Cc1cccc(Cn2cnc(C(=O)N[C@H]3COc4cccnc4N(C)C3=S)n2)c1 [WX033],7.6 nM,,
CN1C(=S)[C@@H](NC(=O)c2ncn(Cc3ccccc3)n2)COc2cc(Cl)cnc21 [WX021],13 nM,0.445 µM,
CN1C(=S)[C@@H](NC(=O)c2cc(Oc3ccccc3)ccn2)COc2cccnc21 [WX026],5 nM,,
Cc1nc(C(=O)N[C@H]2COc3cccnc3N(C)C2=S)nn1Cc1ccccc1 [WX016],9.8 nM,,
CN1C(=S)[C@@H](NC(=O)c2nc(Cl)n(Cc3cccc(C#N)c3)n2)COc2cccnc21 [WX008],8.1 nM,0.047 µM,
CN1C(=S)[C@@H](NC(=O)c2nnn(Cc3ccccc3)n2)COc2cccnc21 [WX018],,,IC50 ([1]; 24 hours): 1.3 nM
CN1C(=S)[C@@H](NC(=O)c2nnn(Cc3ccccc3)n2)COc2cccnc21 [WX015],,,IC50 ([1]; 24 hours): 5.1 nM
CN1C(=S)[C@@H](NC(=O)c2ncn(Cc3ccccc3F)n2)COc2cc(Cl)cnc21 [WX022],20 nM,,
CN1C(=S)[C@@H](NC(=O)c2nc(Cl)n(Cc3ccccc3)n2)COc2cccnc21 [WX011],1.7 nM,0.011 µM,
CN1C(=S)[C@@H](NC(=O)c2nc3n(n2)[C@H](c2ccccc2)CC3)COc2cccnc21 [WX013],1.8 nM,0.014 µM,"AUC(0-t) ([3]; 1 mg/kg, iv = 1 mpk): 7.42 µM·h; clearance ([3]; 1 mg/kg, iv = 1 mpk): 5.18 mL/min/kg; half-life ([3]; 1 mg/kg, iv = 1 mpk): 293 min; Vd ([3]; 1 mg/kg, iv = 1 mpk, read-out: Vdss): 2.02 L/kg; AUC(0-t) ([3]; 5 mg/kg, po = 5 mpk): 27.7 µM·h; bioavailability ([3]; po = 5 mpk vs iv = 1 mpk): 80.1%"
